Measured values as given in ChEMBL document CHEMBL1154064, “Synthesis and DNA cleavage activity of 2-hydrazinyl-1,4,5,6-tetrahydropyrimidine containing hydroxy group” (2009).

Experiments:
[1] = test system: Nucleic Acid; experiment: Binding affinity to Escherichia coli pUC19 DNA assessed as form 1 DNA level at 0.130 mM after 11.30 hrs by agarose gel electrophoresis; format: nucleic-acid assay
[2] = test system: Nucleic Acid; experiment: Binding affinity to Escherichia coli pUC19 DNA assessed as form 1 DNA level at 0.463 mM after 27.33 hrs by agarose gel electrophoresis; format: nucleic-acid assay
[3] = test system: Nucleic Acid; experiment: Binding affinity to Escherichia coli pUC19 DNA assessed as form 2 DNA level at 0.349 mM after 26.15 hrs by agarose gel electrophoresis; format: nucleic-acid assay
[4] = test system: Nucleic Acid; experiment: Binding affinity to Escherichia coli pUC19 DNA assessed as form 1 DNA level at 0.130 mM after 5.42 hrs by agarose gel electrophoresis; format: nucleic-acid assay
[5] = test system: HeLa; experiment: Growth inhibition of human HeLa cells at 1000 uM after 72 hrs by MTT assay; format: functional; design: scale not given: the % may be the effect or the level left
[6] = test system: Nucleic Acid; experiment: Binding affinity to Escherichia coli pUC19 DNA assessed as form 2 DNA level at 0.320 mM after 25.35 hrs by agarose gel electrophoresis; format: nucleic-acid assay
[7] = test system: Nucleic Acid; experiment: Binding affinity to Escherichia coli pUC19 DNA assessed as form 2 DNA level at 0.175 mM after 31.48 hrs by agarose gel electrophoresis; format: nucleic-acid assay
[8] = test system: Nucleic Acid; experiment: Binding affinity to Escherichia coli pUC19 DNA assessed as form 1 DNA level at 0.463 mM after 29.33 hrs by agarose gel electrophoresis; format: nucleic-acid assay
[9] = test system: Nucleic Acid; experiment: Binding affinity to Escherichia coli pUC19 DNA assessed as form 1 DNA level at 0.175 mM after 27.33 hrs by agarose gel electrophoresis; format: nucleic-acid assay
[10] = test system: Nucleic Acid; experiment: Binding affinity to Escherichia coli pUC19 DNA assessed as form 1 DNA level at 0.698 mM after 6.42 hrs by agarose gel electrophoresis; format: nucleic-acid assay
[11] = test system: Nucleic Acid; experiment: Binding affinity to Escherichia coli pUC19 DNA assessed as form 2 DNA level at 0.130 mM by agarose gel electrophoresis; format: nucleic-acid assay
[12] = test system: Nucleic Acid; experiment: Binding affinity to Escherichia coli pUC19 DNA assessed as form 2 DNA level at 0.175 mM by agarose gel electrophoresis; format: nucleic-acid assay
[13] = test system: Nucleic Acid; experiment: Binding affinity to Escherichia coli pUC19 DNA assessed as form 2 DNA level at 0.262 mM after 23.02 hrs by agarose gel electrophoresis; format: nucleic-acid assay
[14] = test system: Nucleic Acid; experiment: Binding affinity to Escherichia coli pUC19 DNA assessed as form 2 DNA level at 0.698 mM after 10.70 hrs by agarose gel electrophoresis; format: nucleic-acid assay
[15] = test system: Nucleic Acid; experiment: Binding affinity to Escherichia coli pUC19 DNA assessed as form 2 DNA level at 0.349 mM after 11.33 hrs by agarose gel electrophoresis; format: nucleic-acid assay
[16] = test system: Nucleic Acid; experiment: Binding affinity to Escherichia coli pUC19 DNA assessed as form 1 DNA level at 0.698 mM after 12.13 hrs by agarose gel electrophoresis; format: nucleic-acid assay
[17] = test system: Nucleic Acid; experiment: Binding affinity to Escherichia coli pUC19 DNA assessed as form 2 DNA level at 0.175 mM after 23.12 hrs by agarose gel electrophoresis; format: nucleic-acid assay
[18] = test system: Nucleic Acid; experiment: Binding affinity to Escherichia coli pUC19 DNA assessed as form 2 DNA level at 0.320 mM after 23.12 hrs by agarose gel electrophoresis; format: nucleic-acid assay
[19] = test system: Nucleic Acid; experiment: Binding affinity to Escherichia coli pUC19 DNA assessed as form 2 DNA level at 0.463 mM after 27.33 hrs by agarose gel electrophoresis; format: nucleic-acid assay
[20] = test system: Nucleic Acid; experiment: Binding affinity to Escherichia coli pUC19 DNA assessed as form 1 DNA level at 0.130 mM after 23.52 hrs by agarose gel electrophoresis; format: nucleic-acid assay
[21] = test system: Nucleic Acid; experiment: Binding affinity to Escherichia coli pUC19 DNA assessed as form 2 DNA level at 0.175 mM after 9.07 hrs by agarose gel electrophoresis; format: nucleic-acid assay
[22] = test system: Nucleic Acid; experiment: Binding affinity to Escherichia coli pUC19 DNA assessed as form 2 DNA level at 0.262 mM after 27.07 hrs by agarose gel electrophoresis; format: nucleic-acid assay
[23] = test system: Nucleic Acid; experiment: Binding affinity to Escherichia coli pUC19 DNA assessed as form 1 DNA level at 0.262 mM after 24.08 hrs by agarose gel electrophoresis; format: nucleic-acid assay
[24] = test system: HeLa; experiment: Growth inhibition of human HeLa cells at 10 uM after 72 hrs by MTT assay; format: functional; design: scale not given: the % may be the effect or the level left
[25] = test system: Nucleic Acid; experiment: Binding affinity to Escherichia coli pUC19 DNA assessed as form 2 DNA level at 0.349 mM after 23.02 hrs by agarose gel electrophoresis; format: nucleic-acid assay

SMILES: Cl.Cl.NNC1=NCC(O)CN1 (stereo not given)
- Activity [1]: 78.2%
- Activity [2]: 59.4%
- Activity [3]: 31.5%
- Activity [4]: 85%
- Activity [5]: 0%
- Activity [6]: 69.8%
- Activity [7]: 26%
- Activity [8]: 57.8%
- Activity [9]: 76%
- Activity [10]: 86.6%
- Activity [11]: 11.4%
- Activity [12]: 2.93%
- Activity [13]: 9.9%
- Activity [14]: 21.8%
- Activity [15]: 9.09%
- Activity [16]: 77%
- Activity [17]: 19.2%
- Activity [18]: 73.4%
- Activity [19]: 40.6%
- Activity [20]: 74%
- Activity [21]: 6.09%
- Activity [22]: 15.3%
- Activity [23]: 89.5%
- Activity [24]: 0%
- Activity [25]: 27.7%
